# Literature values, collected in patent publication US20070166389A1, “Stabilized lyophilized blood platelets” (priority 2005, published 2007).
# Key:
# [1] = dosages effective for increasing bile salt secretion
# sickle erythrocytes = conditions: glyceraldehyde treatment in vitro
Structure (SMILES),abnormal symptoms in liver or kidney [1],deleterious effects of the treatment (sickle erythrocytes),life span in vivo of sickle erythrocytes (sickle erythrocytes)
COC(=O)C1=CO[C@@H](O)[C@@H]2C(CO)=CC[C@H]12 [genipin],do not cause any abnormal symptoms in the liver or kidney,,
O=CC(O)CO (stereo not drawn) [glyceraldehyde],,failed to show any deleterious effects,prolongation of the life span of sickle erythrocytes
